Results on 29 compounds are retold here after ChEMBL document CHEMBL2429824, “Computer-assisted design of dual-target anti-HIV-1 compounds” (Med Chem Res, 2013).

The first experiment concerns the target Human immunodeficiency virus type 1 reverse transcriptase (Human immunodeficiency virus 1, UniProt Q72547). Put plainly: Inhibition of HIV-1 reverse transcriptase.
Conditions: not given
What is called IC50 is the concentration that inhibits the measured activity by half. Low values mean greater potency, high ones weaker potency. For the compound `N#Cc1c(N)cccc1[S+]([O-])c1cc(Cl)ccc1Cl` (centres undefined), the half-maximal inhibitory concentration (IC50) is 6.31 µM. In other words, the single-digit micromolar range.
Still for that read-out and setting: in the case of `COc1cc([S+]([O-])c2cccc(N)c2C#N)cc(C(F)(F)F)c1` (centres undefined) it was 0.912 µM; in that of `COc1ccc(S(=O)(=O)c2cccc(N)c2C#N)cc1`, 13.2 µM.

Another experiment has as its system Human immunodeficiency virus 1. Put plainly: Antiviral activity against HIV-1 infected in human MT-4 cells. As to conditions: Human immunodeficiency virus 1, MT4. The format is functional, organism-based.
For the compound `[N-]=[N+]=N[C@H]1C[C@H](n2cnc3nc(N)nc(NC4CCC4)c32)O[C@@H]1CO`, the IC50 is 14.1 µM.
On the same count and under the same terms, then `[N-]=[N+]=N[C@H]1C[C@H](n2cnc3nc(N)nc(Oc4ccccc4)c32)O[C@@H]1CO`, with 28.2 µM; and `CCCCNc1nc(N)nc2ncn([C@H]3C[C@H](N=[N+]=[N-])[C@@H](CO)O3)c12`, with 28.8 µM.
Same read-out and setting: then `CCN(C)c1nc(N)nc2ncn([C@H]3C[C@H](N=[N+]=[N-])[C@@H](CO)O3)c12`, with 12 µM; and `CCNc1nc(N)nc2ncn([C@H]3C[C@H](N=[N+]=[N-])[C@@H](CO)O3)c12`, with 17 µM; and `[N-]=[N+]=N[C@H]1C[C@H](n2cnc3nc(N)nc(N)c32)O[C@@H]1CO`, with 2 µM.
The same measure, in the same setting: then `[N-]=[N+]=N[C@H]1C[C@H](n2cnc3nc(N)nc(NC4CC4)c32)O[C@@H]1CO`, with 18.2 µM.
`[N-]=[N+]=N[C@H]1C[C@H](n2cnc3nc(N)nc(OCc4ccccc4)c32)O[C@@H]1CO` gave a half-maximal inhibitory concentration (IC50) of 7.94 µM.
On the same count and under the same terms, in the case of `CNc1nc(N)nc2ncn([C@H]3C[C@H](N=[N+]=[N-])[C@@H](CO)O3)c12` it was 52.5 µM; in that of `CCOc1nc(N)nc2ncn([C@H]3C[C@H](N=[N+]=[N-])[C@@H](CO)O3)c12`, 22.9 µM; in that of `CCCOc1nc(N)nc2ncn([C@H]3C[C@H](N=[N+]=[N-])[C@@H](CO)O3)c12`, 8.91 µM.
Still for that read-out and setting: then `CCCCOc1nc(N)nc2ncn([C@H]3C[C@H](N=[N+]=[N-])[C@@H](CO)O3)c12`, with 19.1 µM.
The same measure, in the same setting: in the case of `[N-]=[N+]=N[C@H]1C[C@H](n2cnc3nc(N)nc(N4CCCC4)c32)O[C@@H]1CO` it was 7.94 µM; in that of `CN(C)c1nc(N)nc2ncn([C@H]3C[C@H](N=[N+]=[N-])[C@@H](CO)O3)c12`, 20.9 µM; in that of `N#Cc1c(N)cccc1S(=O)(=O)c1cccc(C(F)(F)F)c1`, 34.7 µM.
`[N-]=[N+]=N[C@H]1C[C@H](n2cnc3nc(N)nc(O)c32)O[C@@H]1CO` gave a concentration for half-maximal inhibition (IC50) of 5.01 µM.
Take `CCCNc1nc(N)nc2ncn([C@H]3C[C@H](N=[N+]=[N-])[C@@H](CO)O3)c12`: the IC50 is 12 µM.
The same measure, in the same setting: then `[N-]=[N+]=N[C@H]1C[C@H](n2cnc3nc(N)nc(N4CCC4)c32)O[C@@H]1CO`, with 8.91 µM.
The compound `COc1nc(N)nc2ncn([C@H]3C[C@H](N=[N+]=[N-])[C@@H](CO)O3)c12` had an IC50 of 8.91 µM.
Still for that read-out and setting: in the case of `[N-]=[N+]=N[C@H]1C[C@H](n2cnc3nc(N)nc(OC4CCC4)c32)O[C@@H]1CO` it was 5.01 µM.
As to `COc1cccc(S(=O)(=O)c2cccc(N)c2C#N)c1`, the half-maximal inhibitory concentration (IC50) was 0.912 µM.
`CN(c1nc(N)nc2ncn([C@H]3C[C@H](N=[N+]=[N-])[C@@H](CO)O3)c12)C1CC1` gave a 50% inhibitory concentration (IC50) of 3.98 µM.
On the same count and under the same terms, then `[N-]=[N+]=N[C@H]1C[C@H](n2cnc3nc(N)nc(Cl)c32)O[C@@H]1CO`, with 6.03 µM; and `[N-]=[N+]=N[C@H]1C[C@H](n2cnc3nc(N)nc(NCCc4ccccc4)c32)O[C@@H]1CO`, with 112 µM.
Turning to `CCCN(C)c1nc(N)nc2ncn([C@H]3C[C@H](N=[N+]=[N-])[C@@H](CO)O3)c12`, half-maximal inhibition (IC50) required 11 µM.
On the same count and under the same terms, then `CC(C)Oc1nc(N)nc2ncn([C@H]3C[C@H](N=[N+]=[N-])[C@@H](CO)O3)c12`, with 21.9 µM.
